Measured values reported in ChEMBL document CHEMBL5614392, “Discovery of novel N2-indazole derivatives as phosphodiesterase 4 inhibitors for the treatment of inflammatory bowel disease” (Eur J Med Chem, 2024).
pIC50: −log10 of the molar value. Activity calls are given as the source filed them. No cut-off for these calls is given here.

Columns and labels:
[1] = Selectivity ratio of IC50 for PDE8A (unknown origin) to IC50 for PDE4D (unknown origin)
[2] = system: Mus musculus; test: Antiinflammatory activity against DSS-induced colitis C57BL/6J mouse model assessed as decrease in body weight loss at 10 mg/kg, po pretreated with DSS for 10 days followed by twice daily compound administration for 8 days starting from day 3 to day 10 relative to control; format: functional; design: scale not given: the % may be the effect or the level left; settings: time 8 day
[3] = Selectivity ratio of IC50 for PDE7A (unknown origin) to IC50 for PDE4D (unknown origin)
[4] = system: Mus musculus; test: Antiinflammatory activity against DSS-induced colitis C57BL/6J mouse model assessed as reduction in lamina propria breakdown in colon at 3 to 10 mg/kg, po pretreated with DSS for 10 days followed by twice daily compound administration for 8 days starting from day 3 to day 10 by H and E staining based analysis; format: functional, organism-based; settings: dose 3-10 mg/kg, time 8.0 day
[5] = system: Mus musculus; test: (§1) Antiinflammatory activity against DSS-induced colitis C57BL/6J mouse model assessed as reduction in mucosal damage in colon at 3 to 10 mg/kg, po pretreated with DSS for 10 days followed by twice daily compound administration for 8 days starting from day 3 to day 10 by H and E staining based analysis; format: functional, organism-based; settings: dose 3-10 mg/kg, time 8.0 day
[6] = system: RAW264.7; test: Antiinflammatory activity against mouse RAW264.7 cells assessed as inhibition of LPS-induced TNF-alpha mRNA production at 10 uM incubated for 24 hrs by SYBR green quantitative PCR analysis; format: functional, cell-based
[7] = target: 3',5'-cyclic-AMP phosphodiesterase 4B (Homo sapiens, UniProt Q07343); test: Inhibition of PDE4B (unknown origin) using FAM-cyclic-3'5'-AMP as substrate incubated for 1 hrs by fluorescence polarization assay
[8] = target: cGMP-inhibited 3',5'-cyclic phosphodiesterase 3B (Homo sapiens) (UniProt Q13370); test: Inhibition of PDE3B (unknown origin) using FAM-cyclic-3'5'-AMP as substrate at 10 uM incubated for 1 hrs by fluorescence polarization assay relative to control
[9] = Selectivity ratio of IC50 for PDE3B (unknown origin) to IC50 for PDE4D (unknown origin)
[10] = target: High affinity cAMP-specific and IBMX-insensitive 3',5'-cyclic phosphodiesterase 8A (Homo sapiens) (UniProt O60658); test: Inhibition of PDE8A (unknown origin) using FAM-cyclic-3'5'-AMP as substrate at 10 uM incubated for 1 hrs by fluorescence polarization assay relative to control
[11] = target: T1, 3',5'-cyclic-AMP phosphodiesterase 4D (Homo sapiens, UniProt Q08499); test: Inhibition of PDE4D7 (unknown origin) using FAM-cyclic-3'5'-AMP as substrate at 10 nM incubated for 1 hrs by fluorescence polarization assay relative to control
[12] = system: Mus musculus; test: Antiinflammatory activity against DSS-induced colitis C57BL/6J mouse model assessed as decrease in disease activity index at 10 mg/kg, po pretreated with DSS for 10 days followed by twice daily compound administration for 8 days starting from day 3 to day 10 relative to control; format: functional, organism-based; settings: time 8.0 day
[13] = Acute toxicity in male C57BL/6J mouse assessed as animal death at 1 g/Kg, po administered for 14 days; format: organism-based; settings: in vivo, 1000 mg/kg, 336 h, time 14 day
[14] = target: High affinity 3',5'-cyclic-AMP phosphodiesterase 7A (Homo sapiens) (UniProt Q13946); test: Inhibition of PDE7A (unknown origin) using FAM-cyclic-3'5'-AMP as substrate at 10 uM incubated for 1 hrs by fluorescence polarization assay relative to control
[15] = Selectivity ratio of IC50 for PDE9A (unknown origin) to IC50 for PDE4D (unknown origin)
[16] = target: T1, 3',5'-cyclic-AMP phosphodiesterase 4D; test: Inhibition of PDE4D (unknown origin) using FAM-cyclic-3'5'-AMP as substrate incubated for 1 hrs by fluorescence polarization assay
[17] = system: RAW264.7; test: Antiinflammatory activity against mouse RAW264.7 cells assessed as inhibition of LPS-induced IL-6 mRNA production at 10 uM incubated for 24 hrs by SYBR green quantitative PCR analysis; format: functional, cell-based
[18] = system: Mus musculus; test: as §1, with “inflammatory cell infiltration” for “mucosal damage”; format: functional, organism-based; settings: dose 3-10 mg/kg, time 8.0 day
[19] = target: T1, 3',5'-cyclic-AMP phosphodiesterase 4D; test: Inhibition of PDE4D7 (unknown origin) using FAM-cyclic-3'5'-AMP as substrate incubated for 1 hrs by fluorescence polarization assay
[20] = Oral bioavailability in male C57BL/6J mouse; format: ADME, organism-based; settings: in vivo
[21] = target: High affinity cGMP-specific 3',5'-cyclic phosphodiesterase 9A (Homo sapiens) (UniProt O76083); test: Inhibition of PDE9A (unknown origin) using FAM-cyclic-3'5'-AMP as substrate at 10 uM incubated for 1 hrs by fluorescence polarization assay relative to control
[22] = system: Mus musculus; test: Antiinflammatory activity against DSS-induced colitis C57BL/6J mouse model assessed as increase in colon length at 3 to 10 mg/kg, po pretreated with DSS for 10 days followed by twice daily compound administration for 8 days starting from day 3 to day 10; format: functional, organism-based; settings: dose 3-10 mg/kg, time 8.0 day
[23] = Acute toxicity in male C57BL/6J mouse assessed as body weight loss at 1 g/Kg, po administered for 14 days; format: organism-based; settings: in vivo, 1000 mg/kg, 336 h, time 14 day
[24] = system: Mus musculus; test: Antiinflammatory activity against DSS-induced colitis C57BL/6J mouse model assessed as decrease in body weight loss at 3 mg/kg, po pretreated with DSS for 10 days followed by twice daily compound administration for 8 days starting from day 3 to day 10 relative to control; format: functional; design: scale not given: the % may be the effect or the level left; settings: time 8 day
[25] = system: Mus musculus; test: Antiinflammatory activity against DSS-induced colitis C57BL/6J mouse model assessed as decrease in body weight loss at 10 mg/kg, po pretreated with DSS for 10 days followed by twice daily compound administration for 8 days starting from day 3 to day 10 and measured on day 6; format: functional, organism-based; settings: time 4.0 day
[26] = system: RAW264.7; test: Antiinflammatory activity against mouse RAW264.7 cells assessed as inhibition of LPS-induced iNOS mRNA production at 10 uM incubated for 24 hrs by SYBR green quantitative PCR analysis; format: functional, cell-based
[27] = Toxicity in ketamine/xylazine-induced anesthetic male C57BL/6J mouse model assessed as emetogenic potential by measuring reduction in anesthesia duration at 5 to 10 mg/kg, po preadministered with compound for 15 mins followed by ketamine/xylazine administration; format: organism-based; settings: in vivo, 0.25 h, dose 5-10 mg/kg
[28] = target: T1, 3',5'-cyclic-AMP phosphodiesterase 4D; test: Inhibition of PDE4D7 (unknown origin) using FAM-cyclic-3'5'-AMP as substrate at 100 nM incubated for 1 hrs by fluorescence polarization assay relative to control
[29] = system: HT-22; test: Cytotoxicity against mouse HT-22 cells at 10 to 30 uM; format: toxicity, cell-based; settings: ht-22, 30 µM, dose 10-30 µM
[30] = system: Mus musculus; test: as §1, with “crypt structure loss” for “mucosal damage”; format: functional, organism-based; settings: dose 3-10 mg/kg, time 8.0 day

T1 sequence (Q08499 whole entry): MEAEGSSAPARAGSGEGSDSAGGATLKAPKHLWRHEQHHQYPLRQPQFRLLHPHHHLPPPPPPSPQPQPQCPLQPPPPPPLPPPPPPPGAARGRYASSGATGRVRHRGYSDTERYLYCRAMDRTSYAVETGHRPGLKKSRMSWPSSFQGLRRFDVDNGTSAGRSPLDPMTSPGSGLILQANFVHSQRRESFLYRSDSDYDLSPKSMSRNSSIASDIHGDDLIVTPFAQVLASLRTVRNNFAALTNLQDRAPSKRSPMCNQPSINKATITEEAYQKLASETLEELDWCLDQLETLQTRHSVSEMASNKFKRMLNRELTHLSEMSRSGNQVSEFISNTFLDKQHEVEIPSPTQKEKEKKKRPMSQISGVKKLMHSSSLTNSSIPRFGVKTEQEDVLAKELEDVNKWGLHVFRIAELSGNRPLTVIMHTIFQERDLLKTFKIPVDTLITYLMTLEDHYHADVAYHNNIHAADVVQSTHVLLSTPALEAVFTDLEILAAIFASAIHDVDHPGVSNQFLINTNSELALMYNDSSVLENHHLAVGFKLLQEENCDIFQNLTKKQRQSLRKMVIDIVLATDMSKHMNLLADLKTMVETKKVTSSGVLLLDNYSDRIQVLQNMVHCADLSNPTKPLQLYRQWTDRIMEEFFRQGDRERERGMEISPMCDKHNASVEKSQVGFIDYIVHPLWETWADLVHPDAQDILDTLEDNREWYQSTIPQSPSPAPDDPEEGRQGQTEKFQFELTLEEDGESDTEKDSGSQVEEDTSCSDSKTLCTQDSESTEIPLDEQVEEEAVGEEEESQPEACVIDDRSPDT
High affinity cAMP-specific and IBMX-insensitive 3',5'-cyclic phosphodiesterase 8A (Homo sapiens), sequence (O60658 whole entry): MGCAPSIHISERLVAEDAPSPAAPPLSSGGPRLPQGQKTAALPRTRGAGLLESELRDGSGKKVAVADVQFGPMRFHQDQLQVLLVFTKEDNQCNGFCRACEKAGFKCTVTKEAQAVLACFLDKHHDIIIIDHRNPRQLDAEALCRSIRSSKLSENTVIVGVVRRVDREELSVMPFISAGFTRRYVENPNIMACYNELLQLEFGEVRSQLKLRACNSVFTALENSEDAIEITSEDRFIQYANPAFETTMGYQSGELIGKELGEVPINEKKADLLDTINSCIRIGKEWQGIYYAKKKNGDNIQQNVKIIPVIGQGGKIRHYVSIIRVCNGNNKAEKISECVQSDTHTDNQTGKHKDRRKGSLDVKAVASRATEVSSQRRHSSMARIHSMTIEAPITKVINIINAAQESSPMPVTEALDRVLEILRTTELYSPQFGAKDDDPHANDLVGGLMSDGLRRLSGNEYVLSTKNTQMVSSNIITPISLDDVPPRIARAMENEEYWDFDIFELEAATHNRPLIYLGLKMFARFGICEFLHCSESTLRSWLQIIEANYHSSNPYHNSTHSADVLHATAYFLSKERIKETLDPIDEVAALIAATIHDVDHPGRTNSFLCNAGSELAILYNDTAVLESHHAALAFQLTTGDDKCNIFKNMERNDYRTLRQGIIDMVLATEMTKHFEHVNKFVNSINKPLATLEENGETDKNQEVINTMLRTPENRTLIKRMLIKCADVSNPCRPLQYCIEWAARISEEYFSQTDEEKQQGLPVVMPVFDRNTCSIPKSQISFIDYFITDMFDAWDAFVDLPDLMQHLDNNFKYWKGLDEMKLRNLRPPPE
3',5'-cyclic-AMP phosphodiesterase 4B, sequence (Q07343 whole entry): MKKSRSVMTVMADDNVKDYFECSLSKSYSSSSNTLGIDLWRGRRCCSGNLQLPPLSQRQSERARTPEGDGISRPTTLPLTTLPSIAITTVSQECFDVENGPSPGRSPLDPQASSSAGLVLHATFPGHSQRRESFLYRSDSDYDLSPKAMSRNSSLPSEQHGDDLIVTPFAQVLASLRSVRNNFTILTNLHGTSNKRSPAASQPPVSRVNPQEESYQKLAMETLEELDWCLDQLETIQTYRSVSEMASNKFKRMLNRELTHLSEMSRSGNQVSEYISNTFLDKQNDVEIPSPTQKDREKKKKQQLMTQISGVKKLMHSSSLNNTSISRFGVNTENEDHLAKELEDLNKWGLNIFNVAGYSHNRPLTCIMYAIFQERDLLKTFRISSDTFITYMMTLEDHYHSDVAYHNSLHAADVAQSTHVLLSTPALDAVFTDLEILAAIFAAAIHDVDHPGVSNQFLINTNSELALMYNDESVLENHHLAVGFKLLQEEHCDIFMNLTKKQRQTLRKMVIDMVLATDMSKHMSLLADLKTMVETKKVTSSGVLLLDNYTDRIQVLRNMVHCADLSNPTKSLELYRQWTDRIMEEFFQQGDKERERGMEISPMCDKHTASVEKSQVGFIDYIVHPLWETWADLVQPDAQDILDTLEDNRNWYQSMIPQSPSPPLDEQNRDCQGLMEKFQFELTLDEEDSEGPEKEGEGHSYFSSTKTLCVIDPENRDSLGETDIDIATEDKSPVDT
High affinity cGMP-specific 3',5'-cyclic phosphodiesterase 9A (Homo sapiens), sequence (O76083 whole entry): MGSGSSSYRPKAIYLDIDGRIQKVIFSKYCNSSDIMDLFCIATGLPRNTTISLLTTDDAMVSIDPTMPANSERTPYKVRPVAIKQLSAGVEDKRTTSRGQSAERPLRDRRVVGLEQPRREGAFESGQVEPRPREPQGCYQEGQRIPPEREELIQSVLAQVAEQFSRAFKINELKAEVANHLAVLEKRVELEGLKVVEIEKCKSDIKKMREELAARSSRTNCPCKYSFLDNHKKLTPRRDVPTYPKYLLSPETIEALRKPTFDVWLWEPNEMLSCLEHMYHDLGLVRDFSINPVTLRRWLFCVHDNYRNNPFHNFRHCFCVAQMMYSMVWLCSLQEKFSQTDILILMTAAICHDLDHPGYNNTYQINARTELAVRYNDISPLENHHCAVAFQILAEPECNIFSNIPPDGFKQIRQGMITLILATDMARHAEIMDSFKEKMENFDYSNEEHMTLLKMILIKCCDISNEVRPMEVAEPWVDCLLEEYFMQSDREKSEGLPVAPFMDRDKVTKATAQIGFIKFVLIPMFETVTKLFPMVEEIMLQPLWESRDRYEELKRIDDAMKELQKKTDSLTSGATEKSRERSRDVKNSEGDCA
cGMP-inhibited 3',5'-cyclic phosphodiesterase 3B (Homo sapiens), sequence (Q13370 whole entry, looked up): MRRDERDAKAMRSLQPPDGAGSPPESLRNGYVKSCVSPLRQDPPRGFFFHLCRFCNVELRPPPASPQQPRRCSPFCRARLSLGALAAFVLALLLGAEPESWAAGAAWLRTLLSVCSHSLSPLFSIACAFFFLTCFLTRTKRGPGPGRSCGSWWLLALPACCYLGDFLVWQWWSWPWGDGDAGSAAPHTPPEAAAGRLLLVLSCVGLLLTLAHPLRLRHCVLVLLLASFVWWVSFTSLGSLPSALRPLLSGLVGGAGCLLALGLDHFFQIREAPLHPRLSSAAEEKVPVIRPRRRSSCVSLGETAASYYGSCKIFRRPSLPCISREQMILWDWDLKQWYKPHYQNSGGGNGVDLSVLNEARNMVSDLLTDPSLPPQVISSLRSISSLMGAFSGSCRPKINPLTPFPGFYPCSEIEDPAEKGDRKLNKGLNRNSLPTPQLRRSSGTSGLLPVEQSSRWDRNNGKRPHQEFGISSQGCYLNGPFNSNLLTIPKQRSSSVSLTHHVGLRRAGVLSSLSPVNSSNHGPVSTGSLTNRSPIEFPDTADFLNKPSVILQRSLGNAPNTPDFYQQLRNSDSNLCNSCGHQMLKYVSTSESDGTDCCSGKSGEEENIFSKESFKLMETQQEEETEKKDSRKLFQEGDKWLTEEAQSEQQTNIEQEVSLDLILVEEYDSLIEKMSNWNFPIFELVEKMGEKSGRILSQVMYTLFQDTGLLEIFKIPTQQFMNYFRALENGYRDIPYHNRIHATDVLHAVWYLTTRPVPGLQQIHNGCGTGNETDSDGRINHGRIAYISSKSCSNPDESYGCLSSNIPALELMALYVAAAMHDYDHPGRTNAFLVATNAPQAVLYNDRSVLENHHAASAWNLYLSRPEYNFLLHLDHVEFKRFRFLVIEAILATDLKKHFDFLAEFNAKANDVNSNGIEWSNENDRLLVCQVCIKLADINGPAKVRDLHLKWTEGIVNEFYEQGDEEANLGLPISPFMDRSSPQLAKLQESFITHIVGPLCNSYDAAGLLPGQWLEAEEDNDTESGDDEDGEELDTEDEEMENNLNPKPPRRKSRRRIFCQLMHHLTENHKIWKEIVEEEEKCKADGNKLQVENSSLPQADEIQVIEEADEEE
High affinity 3',5'-cyclic-AMP phosphodiesterase 7A (Homo sapiens), sequence (Q13946 whole entry): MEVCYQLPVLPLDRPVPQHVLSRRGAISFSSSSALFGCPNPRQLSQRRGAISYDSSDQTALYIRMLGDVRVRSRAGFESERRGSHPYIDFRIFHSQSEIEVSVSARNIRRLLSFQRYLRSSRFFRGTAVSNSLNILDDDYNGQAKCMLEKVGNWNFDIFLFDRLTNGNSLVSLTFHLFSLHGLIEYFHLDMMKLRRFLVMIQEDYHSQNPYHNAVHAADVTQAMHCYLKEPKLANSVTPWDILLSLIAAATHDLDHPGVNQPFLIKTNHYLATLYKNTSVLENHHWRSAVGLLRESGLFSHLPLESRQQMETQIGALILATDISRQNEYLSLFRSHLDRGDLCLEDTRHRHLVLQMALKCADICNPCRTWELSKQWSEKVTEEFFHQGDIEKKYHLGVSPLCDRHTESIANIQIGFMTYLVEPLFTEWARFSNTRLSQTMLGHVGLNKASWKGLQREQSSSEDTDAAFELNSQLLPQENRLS

COc1cc(-c2ccc(OC(F)F)c3nn(C4CC4)cc23)cc(OC)c1OC
Ratio IC50 [1]: > 156
Activity [2]: 4.9%
Ratio IC50 [3]: > 156
Activity [4]: Active
Activity [5]: Active
Activity [6]: Active
pIC50 [7]: 7.19
inhibition [8]: 6%
Ratio IC50 [9]: > 156
inhibition [10]: 12%
inhibition [11]: 42%
Activity [12]: Active
Activity [13]: Non-Toxic
inhibition [14]: 14%
Ratio IC50 [15]: > 156
pIC50 [16]: 7.18
Activity [17]: Active
Activity [18]: Active
pIC50 [19]: 7.98
bioavailability [20]: 5%
inhibition [21]: 7%
Activity [22]: Active
Activity [23]: Non-Toxic
Activity [24]: 16.7%
Activity [25]: Active
Activity [26]: Active
Activity [27]: Non-Toxic
inhibition [28]: 86%
Activity [29]: Non-Toxic
Activity [30]: Active
